We go through two molecules from patent publication US4752469A, “Potentiators of beta-lactam antibiotics” (E. R. Squibb & Sons, Inc., priority 1984, dated 1988).

Values after ≈ are worked out from the molar mass of the structure shown. “Also recorded” adds a separate entry of the source. Where two headings read alike, the source gives them in different places. Starred links: 1 amine or outer side, 2 acyl side, 3 side chain; linkers in the order of their positions; H or OH if unused. Non-standard residues stand in square brackets, D forms with d. Residues, ends and D or L forms follow the SMILES beside them. ξ: configuration not given here. *: point of attachment. X1 = CC(=O)N[C@H]1[C@H](OC2CC(C(=O)[*:2])N([*:1])C2CO)O[C@H](CO)[C@@H](OS(=O)(=O)O)[C@@H]1O; βGlcNAc = CC(=O)N[C@@H]1[C@@H](O)[C@H](O)[C@@H](CO)O[C@H]1*; ξE = NC(CCC(=O)O)C(=O)O; ξK = NCCCCC(N)C(=O)O; ξT = CC(O)C(N)C(=O)O; ξS = NC(CO)C(=O)O

Test [1] relates to Proteus rettgeri SC 8479. Conditions: for potentiation of cell wall synthesis inhibitors other than β-lactams: Proteus rettgeri system; for potentiation of cell wall synthesis inhibitors other than β-lactams / potentiation of β-lactam antibiotics: in words; for potentiation of β-lactam antibiotics: vs. Proteus rettgeri. The method, then:
(§1) The technique used was the double disk diffusion test, described by D. J. Krogstad and R. C. Moellering, Jr. in: Antibiotics in Laboratory Medicine, ed. V. Lorian, pps. 298-341, Williams and Wilkins, 1980. Disks contained 30 μg of compound, and unless noted otherwise, were placed adjacent to each other on the surface of a nutrient agar seeded with a test organism in a Petri dish.

Another test relates to Escherichia coli SC 8294. The settings on record: for Interaction: Escherichia coli SC 8294; for potentiation of β-lactam antibiotics: vs. Escherichia coli, in words. The method, then: as §1
Another test concerns gram-negative bacteria. Kind of test: enhancement of antibacterial activity of β-lactam antibiotics (general statement). In kind it is cell-based. Conditions: e.g., aztreonam, ampicillin, piperacillin and moxalactam, in words. From the text:
Moellering, Jr. in: Antibiotics in Laboratory Medicine, ed. V. Lorian, pps. 298-341, Williams and Wilkins, 1980.

The test system of a further test is Proteus vulqaris SC 9416. The settings on record: agar dilution.
The subject of test [2] is Proteus mirabilis SC 3855. Conditions: agar dilution.
The test system of test [3] is Staphylococcus aureus SC 1276. Conditions: agar dilution.
In test [4] the test system is Proteus rettgeri SC 8479. Conditions: agar dilution.
Test [5] concerns Salmonella typhosa SC 1195.
Setting [6] is: 30 μg/disc compound plus Cefoxitin 30 μg/disc.
Setting [7] is: 30 μg/disc compound plus Cephalothin 30 μg/disc.
Where [8] appears, read: 30 μg/disc compound plus Mecillinam 10 μg/disc.
Setting [9] is: 30 μg/disc compound plus N--f-thienamycin 30 μg/disc.

For the molecule `CC(=O)N[C@@H]1[C@H](O[C@@H]2C[C@@H](C(=O)N[C@@H](CCCCN)C(=O)N[C@H](C(=O)N[C@@H](CO)C(=O)O)[C@@H](C)O[C@@H]3O[C@@H](CO)[C@@H](O)[C@H](O)[C@@H]3NC(C)=O)NC2CO)O[C@@H](CO)[C@@H](OS(=O)(=O)O)[C@@H]1O` (some centres unmarked) [SQ 28,504], the “potentiation of cell wall synthesis inhibitors other than β-lactams” value in the test on Proteus rettgeri SC 8479 [1] is recorded as “potentiation occurs with cell wall synthesis inhibitors other than β-lactams”. In addition, the “potentiation of β-lactam antibiotics” value in the test with Proteus rettgeri SC 8479 [1] and with Escherichia coli SC 8294 was “potentiate the activity of β-lactam antibiotics” throughout. The Interaction entry in the test with Escherichia coli SC 8294 (setting [6]), in the test on Escherichia coli SC 8294 (setting [7]), in the test on Escherichia coli SC 8294 (setting [8]) and with Escherichia coli SC 8294 (setting [9]) was “I” each time. Moreover, the “enhancement of the antibacterial activity of β-lactam antibiotics” value with gram-negative bacteria is “potentiates the antibiotic activity of several β-lactam antibiotics; also recorded: enhance the antibacterial activity of β-lactam antibiotics”.

For `CC(=O)N[C@H]1[C@H](OC2CC(C(=O)NC(CCCCN)C(=O)NC(C(=O)NC(CO)C(=O)NC(CCC(=O)O)C(=O)NC(CO)C(=O)O)C(C)O[C@@H]3O[C@H](CO)[C@@H](O)[C@H](O)[C@H]3NC(C)=O)NC2CO)O[C@H](CO)[C@@H](OS(=O)(=O)O)[C@@H]1O` (some centres unmarked) [SQ 28,546] (H-[X1][ξK][ξT](βGlcNAc)[ξS][ξE][ξS]-OH), the MIC was 12.5 µg/mL (≈ 10.6 µM) in the test with Proteus vulqaris SC 9416; 25 µg/mL (≈ 21.2 µM) in test [2]; more than 100 µg/mL in test [3]; 12.5 µg/mL (≈ 10.6 µM) against Proteus rettgeri SC 8479 [4]; 25.0 µg/mL (≈ 21.2 µM) in test [5]. Besides, the Interaction result in the test with Proteus rettgeri SC 8479 [1] (30 μg/disc compound plus Vancomycin 30 μg/disc, Proteus rettgeri SC 8479) was “I”; in the test with Escherichia coli SC 8294 (30 μg/disc compound plus Azocillin 30 μg/disc), “I”; in the test with Escherichia coli SC 8294 (30 μg/disc compound plus Cefamandole 30 μg/disc) it was “I”; in the test on Escherichia coli SC 8294 (30 μg/disc compound plus Cefotaxime 30 μg/disc) it was “I”; in the test with Escherichia coli SC 8294 (setting [6]), “I”; with Escherichia coli SC 8294 (setting [7]), “I”. In addition, the Interaction result in the test with Escherichia coli SC 8294 (30 μg/disc compound plus Diumycin 30 μg/disc), in the test with Escherichia coli SC 8294 (30 μg/disc compound plus Fosfonomycin 30 μg/disc), with Escherichia coli SC 8294 (setting [8]), in the test with Escherichia coli SC 8294 (setting [9]), in the test on Escherichia coli SC 8294 (30 μg/disc compound plus Penicillin G 100 Units/disc) and in the test with Escherichia coli SC 8294 (30 μg/disc compound plus Vancomycin 30 μg/disc) was “I” in each case. The “potentiation of cell wall synthesis inhibitors other than β-lactams” value with Proteus rettgeri SC 8479 [1] is “potentiation occurs with cell wall synthesis inhibitors other than β-lactams”. Also, the “potentiation of β-lactam antibiotics” value with Proteus rettgeri SC 8479 [1] and in the test with Escherichia coli SC 8294 was “potentiate the activity of β-lactam antibiotics” throughout. In addition, the “enhancement of the antibacterial activity of β-lactam antibiotics” value in the test with gram-negative bacteria is “potentiates the antibiotic activity of several β-lactam antibiotics; also recorded: enhance the antibacterial activity of β-lactam antibiotics”.
